According to PMC11311138, “Design of Promising Thiazoloindazole-Based Acetylcholinesterase Inhibitors Guided by Molecular Docking and Experimental Insights” (ACS Chemical Neuroscience, 2024):

Tests used:
equine serum BuChE = equine serum BuChE (Equus caballus, UniProt P81908); test: biochemical; details: pH 8, 37 °C, triplicate
[1] = molecular target: Electrophorus electricus AChE (eeAChE) (Electrophorus electricus, UniProt O42275); test: biochemical; format: biochemical; details: pH 8, 37 °C, triplicate
Electrophorus electricus AChE (eeAChE), sequence (O42275 24-633): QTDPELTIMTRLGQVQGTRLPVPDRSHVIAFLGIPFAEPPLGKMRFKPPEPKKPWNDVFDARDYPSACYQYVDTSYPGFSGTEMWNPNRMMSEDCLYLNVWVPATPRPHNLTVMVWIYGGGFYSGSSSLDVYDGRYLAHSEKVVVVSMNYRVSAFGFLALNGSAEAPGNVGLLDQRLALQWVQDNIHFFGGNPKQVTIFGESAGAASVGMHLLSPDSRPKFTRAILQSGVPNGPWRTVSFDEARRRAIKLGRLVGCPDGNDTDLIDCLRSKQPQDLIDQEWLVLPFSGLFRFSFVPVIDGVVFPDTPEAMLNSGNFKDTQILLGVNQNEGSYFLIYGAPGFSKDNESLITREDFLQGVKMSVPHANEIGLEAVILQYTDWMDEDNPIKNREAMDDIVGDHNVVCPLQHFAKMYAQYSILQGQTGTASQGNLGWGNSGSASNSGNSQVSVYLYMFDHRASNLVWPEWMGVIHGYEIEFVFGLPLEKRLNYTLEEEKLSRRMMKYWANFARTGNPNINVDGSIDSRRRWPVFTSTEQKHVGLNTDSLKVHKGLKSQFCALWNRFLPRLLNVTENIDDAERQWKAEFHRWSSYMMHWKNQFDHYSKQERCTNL

equine serum BuChE, sequence (P81908 whole entry): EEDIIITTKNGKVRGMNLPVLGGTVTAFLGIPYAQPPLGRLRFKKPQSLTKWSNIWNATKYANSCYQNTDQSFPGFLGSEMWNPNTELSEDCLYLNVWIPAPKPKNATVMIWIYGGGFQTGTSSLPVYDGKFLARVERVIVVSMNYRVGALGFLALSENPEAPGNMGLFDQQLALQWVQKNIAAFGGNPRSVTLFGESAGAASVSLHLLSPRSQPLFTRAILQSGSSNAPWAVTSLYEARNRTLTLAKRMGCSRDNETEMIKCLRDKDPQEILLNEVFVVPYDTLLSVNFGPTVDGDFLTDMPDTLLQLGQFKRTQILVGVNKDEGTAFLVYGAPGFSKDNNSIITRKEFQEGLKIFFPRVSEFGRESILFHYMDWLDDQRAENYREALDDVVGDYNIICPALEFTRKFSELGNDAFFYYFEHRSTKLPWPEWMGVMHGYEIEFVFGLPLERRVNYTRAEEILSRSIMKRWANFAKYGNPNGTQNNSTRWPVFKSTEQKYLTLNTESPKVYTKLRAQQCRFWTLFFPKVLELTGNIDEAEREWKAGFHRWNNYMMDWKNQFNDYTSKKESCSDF

Compound	IC50 (equine serum BuChE) [µM]	IC50 [1] [µM]	AChE IC50 [1]
Cn1nc(Cl)c2c3sc(NC(=O)Cn4c5ccccc5c5ccccc54)nc3ccc21 [TI58c, 2-(9H-carbazol-9-yl)-N-(8-chloro-6-methyl-6H-thiazolo[5,4-e]indazol-2-yl)acetamide]	> 50	> 50	–
CCn1ncc2c3sc(NC(=O)CN=[N+]=[N-])nc3ccc21 [7b, 2-Azido-N-(6-ethyl-6H-thiazolo[5,4-e]indazol-2-yl)acetamide]	> 50	0.54 ± 0.11	–
CCn1ncc2c3sc(N)nc3ccc21 [5b, 6-Ethyl-6H-thiazolo[5,4-e]indazol-2-amine]	> 50	> 50	–
Cn1nc(Cl)c2c3sc(NC(=O)Cn4cc(-c5cc(C(F)(F)F)cc(C(F)(F)F)c5)nn4)nc3ccc21 [TI45c, 2-(4-(3,5-bis(Trifluoromethyl)phenyl)-1H-1,2,3-triazol-1-yl)-N-(8-chloro-6-methyl-6H-thiazolo[5,4-e]indazol-2-yl)acetamide]	> 50	> 50	–
CCn1ncc2ccc3nc(N)sc3c21 [5d, 1-Ethyl-1H-thiazolo[4,5-g]indazol-7-amine]	> 50	> 50	–
CCn1ncc2c3sc(NC(=O)CCl)nc3ccc21 [6b, 2-Chloro-N-(6-ethyl-6H-thiazolo[5,4-e]indazol-2-yl)acetamide]	> 50	13.2 ± 2.71	–
Cn1ncc2c3sc(NC(=O)Cn4cc(-c5cc(C(F)(F)F)cc(C(F)(F)F)c5)nn4)nc3ccc21 [TI45a, 2-(4-(3,5-bis(Trifluoromethyl)phenyl)-1H-1,2,3-triazol-1-yl)-N-(6-methyl-6H-thiazolo[5,4-e]indazol-2-yl)acetamide]	> 50	> 50	–
Cn1ncc2ccc3nc(N)sc3c21 [5c, 1-Methyl-1H-thiazolo[4,5-g]indazol-7-amine]	> 50	> 50	–
Cn1ncc2c3sc(NC(=O)CCl)nc3ccc21 [6a, 2-Chloro-N-(6-methyl-6H-thiazolo[5,4-e]indazol-2-yl)acetamide]	> 50	14.3 ± 2.62	–
Cn1ncc2c3sc(NC(=O)CN=[N+]=[N-])nc3ccc21 [7a, 2-Azido-N-(6-methyl-6H-thiazolo[5,4-e]indazol-2-yl)acetamide]	> 50	> 50	–
Cn1nc(Cl)c2c3sc(NC(=O)CN=[N+]=[N-])nc3ccc21 [7c, 2-Azido-N-(8-chloro-6-methyl-6H-thiazolo[5,4-e]indazol-2-yl)acetamide]	> 50	2.26 ± 0.09	–
Cn1ncc2c3sc(NC(=O)Cn4c5ccccc5c5ccccc54)nc3ccc21 [TI58a, 2-(9H-carbazol-9-yl)-N-(6-methyl-6H-thiazolo[5,4-e]indazol-2-yl)acetamide]	> 50	> 50	–
CCn1ncc2c3sc(NC(=O)Cn4cc(-c5cc(C(F)(F)F)cc(C(F)(F)F)c5)nn4)nc3ccc21 [TI45b, 2-(4-(3,5-bis(Trifluoromethyl)phenyl)-1H-1,2,3-triazol-1-yl)-N-(6-ethyl-6H-thiazolo[5,4-e]indazol-2-yl)acetamide]	> 50	0.071 ± 0.014	–
Cn1nc(Cl)c2c3sc(NC(=O)CCl)nc3ccc21 [6c, 2-Chloro-N-(8-chloro-6-methyl-6H-thiazolo[5,4-e]indazol-2-yl)acetamide]	> 50	> 25	–
CCn1ncc2c3sc(NC(=O)Cn4c5ccccc5c5ccccc54)nc3ccc21 [TI58b, 2-(9H-carbazol-9-yl)-N-(6-ethyl-6H-thiazolo[5,4-e]indazol-2-yl)acetamide]	> 50	> 50	did not experimentally show any activity against AChE
Cn1ncc2c3sc(N)nc3ccc21 [5a, 6-Methyl-6H-thiazolo[5,4-e]indazol-2-amine]	> 50	> 50	–
Cn1nc(Cl)c2c3sc(N)nc3ccc21 [5e, 8-Chloro-6-methyl-6H-thiazolo[5,4-e]indazol-2-amine]	> 50	> 50	–
